Legend:
palmitic and oleic acids = test: LC-MS quantification of palmitic and oleic acids in IAV-infected A549 cells; assay type: cell-based, human; conditions: 20 μM
Procedure: The difference in saturated and unsaturated FFAs between the untreated and the treated cells after infection with IAV or SARS-CoV-2 was determined by GC-FID and LC-MS as previously reported,[11] and detailed procedures are described in Supplementary Information.
The amount of palmitic and oleic acids in the untreated and treated cells after infection with IAV was determined by LC-MS. In brief, A549 cells infected with IAV PR8 strain at an MOI of 0.1 were vehicle-treated, or treated with 20 μM atglistatin or CAY10499 at 12 hpi, or treated with 20 μM atglistatin or CAY10499 and then supplemented individually with 100 μM of PA or OA at 12 hpi, and incubated further for 12 h. Afterward, cells were collected for FFA extraction. 700 μL Chloroform : Methanol (2:1) was added to the freeze cell pellets and vortexed for 1 min. The mixture was sonicated for 5 min and re-vortexed for 1 min. The mixture was centrifuged at 13,000 rpm for 8 min, and the lower organic layer was collected and transferred into a micro-tube. Using vacuum concentrator, the extracts were dried. Finally, the extracts were re-dissolved by methanol and centrifuged at 13,000 rpm for 5 min. The supernatants were transferred into LC-MS vials. […] The standard compounds as well as extracted samples were analyzed in selective ion monitoring (SIM) mode using the ESI source by monitoring the H^- adducts ions. […]

SARS-CoV-2 (KCDC03) = test: In vitro antiviral activity against SARS-CoV-2 in Vero E6 cells (CCIF viral yield, RT-qPCR); assay type: cell-based; conditions: for SI (CC50/IC50) / IC50: SARS-CoV-2 (KCDC03); for IC50: Vero E6 cells; for virus replication (genome copy number, infectious progeny): SARS-CoV-2-infected Vero E6, 20 µM at 18 hpi
MDCK = test: Cytotoxicity, MTT assay, MDCK; assay type: cell-based, canine
Procedure: (§1) The cytotoxic effects of the chemicals and their solvents were tested by the MTT assay,[44] and its procedure is described in Supplementary Information.
(§2) The cytotoxic effects of the chemicals and their solvents used were tested by the MTT assay as described previously.^10 In brief, the chemicals were dissolved in DMSO to a stock concentration of 10 mM, and then freshly serially diluted in serum-free medium before being added to cell culture monolayers. The absorbance was measured using an enzyme-linked immunosorbent assay (ELISA) reader at an optical density (OD) of 570 nm. The percent cell viability was calculated using the following formula, [(ODsample˗ODblank)/(ODcontrol˗ODblank)] × 100%. According to the cell cytotoxicity data, dose-response curves were generated for the calculation of CC50 using GraphPad Prism software version 8.4.2.

A549 = test: Cytotoxicity, MTT assay, A549; assay type: cell-based, human
Procedure: as §1, §2

[1] = tested on: Porcine epidemic diarrhea coronavirus (QIAP1401); test: In vitro antiviral activity against PEDV in Vero E6 cells (CCIF viral yield); assay type: cell-based; conditions: for IC50: Vero E6 cells
Procedure: Cells were grown in 6- or 12-well plates or 8-well chamber slides to the desired confluency and then washed twice with phosphate-buffered saline (PBS, pH 7.4). They were then mock-inoculated with medium only or virus-inoculated with various multiplicities of infection (MOI): MOI of 0.01 or 1 FFU/cell for IAV, and MOI of 0.01 or 0.1 FFU/cell for SARS-CoV-2, BCoV, PEDV, PRRSV, and PSaV. Thereafter, each inoculum was absorbed for 1 h, and the cells were washed twice with PBS (pH 7.4). As shown in Supplementary Table 4, further treatments and incubations varied dependent on the virus species used. Cells treated with PKA inhibitor H89 (5 μM or 50 μM concentration) or vehicle-treated immediately after absorption of IAV at an MOI of 1 FFU or SARS-CoV-2 at an MOI of 0.1 FFU were incubated for 24 and 36 h, respectively, and each cell lysate was used for the detection of HSL and pHSL by western blot analysis as described below. Cells treated with lipase inhibitors at the median incubation time of IAV or SARS-CoV-2 as described in the above condition were supplemented with LA, OA, or PA at 100 µM concentration and left incubation for further median incubation time. The cells were used to assess levels of intracellular TAGs, cholesterol, FFAs, glycerol, FAO, proinflammatory cytokines as well as viral genome copy numbers and virus titers as described below and in Supplementary Information.
To determine the antiviral effects of chemicals, serial 10-fold dilutions of each cell culture supernatant after three cycles of freezing and thawing cycles were prepared in appropriate medium supplemented with 100 U/mL penicillin and 100 μg/mL streptomycin as described above. To determine the viral infectivity titer in lung tissues from the hamsters challenged with or without SARS-CoV-2, or administered with or without inhibitors as described above, aseptically sampled lungs from five hamsters per group at day five post-virus infection were harvested. Cleared supernatants from lung tissue as produced from IAV-infected mice above were serially tenfold-diluted with virus growth medium. […] The cells were washed twice with PBS (pH 8.0), mounted with 60% glycerol, and observed byr inverted fluorescence microscopy. The number of cells showing a viral antigen-positive signal at the endpoint dilution were counted. IC50 was calculated using GraphPad Prism software version 8.4.2. […] CC50 data from the MTT assay and IC50 from the IF assay were both calculated using GraphPad Prism software version 8.4.2.

Vero E6 = test: Cytotoxicity, MTT assay, Vero E6; assay type: cell-based, African green monkey
Procedure: as §1, §2

Row | Structure (SMILES) | levels of PA and OA (LC-MS) (palmitic and oleic acids) | SI (CC50/IC50) (SARS-CoV-2 (KCDC03)) | IC50 (SARS-CoV-2 (KCDC03)) [µM] | virus replication (genome copy number, infectious progeny) (SARS-CoV-2 (KCDC03)) | CC50 (MDCK) [µM] | CC50 (A549) [µM] | SI (CC50/IC50) [1] | IC50 [1] [µM] | CC50 (Vero E6) [µM]
1 | CN(C)C(=O)Nc1cccc(-c2ccc(N(C)C)cc2)c1 [Atglistatin] | significantly reduced | 154 | 1.47 ± 0.12 | inhibiting the replication | 269 ± 3.2 | 206 ± 3 | 116 | 1.96 ± 0.14 | 226 ± 2.4
2 | COc1nn(-c2ccc(NC(=O)OCc3ccccc3)c(C)c2)c(=O)o1 [CAY10499] | significantly reduced | 62 | 1.54 ± 0.18 | inhibiting the replication | 110 ± 4.1 | 106 ± 8.9 | 30 | 3.19 ± 0.42 | 102 ± 8.3
